For 12 compounds, activation results are on record in patent US9382188B2, “Aromatic ring compound” (TAKEDA PHARMACEUTICAL COMPANY LIMITED, priority 2012, dated 2016).

This assay concerns the target T1, human GPR40 (Homo sapiens, UniProt O14842).
T1 construct: expressed in transfected cells
Put plainly: Evaluation of human GPR40 agonist activity with increase in intracellular Ca2+ concentration as an index (FLIPR Tetra). The format is cell-based. The note with it: test compound 1 μM; CHO(dhfr-) cells stably expressing human GPR40; 100% = activity of 1 μM WO2009/048527 Example 99.2, 0% = DMSO. In outline: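 CHO(dhfr-) cells stably expressing human GPR40, loaded with Calcium 5 dye in HEPES/HBSS buffer with 0.2% fatty acid-free BSA and probenecid, 1 h at 37° C. Test compound added at 1 μM final; fluorescence Ca2+ rise scaled to a reference agonist at 1 μM (100%) and DMSO (0%).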

T1 sequence (O14842 whole entry): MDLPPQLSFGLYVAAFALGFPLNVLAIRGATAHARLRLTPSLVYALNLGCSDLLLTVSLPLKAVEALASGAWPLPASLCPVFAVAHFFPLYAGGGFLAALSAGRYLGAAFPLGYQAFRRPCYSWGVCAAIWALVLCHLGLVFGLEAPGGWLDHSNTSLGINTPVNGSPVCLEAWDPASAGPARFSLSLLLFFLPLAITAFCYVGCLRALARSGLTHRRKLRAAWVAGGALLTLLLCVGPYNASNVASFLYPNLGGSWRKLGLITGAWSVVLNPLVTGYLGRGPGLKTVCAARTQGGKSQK

`COc1ccc(F)c(-c2ccc(OCc3cccc(C(CC(=O)O)C4CC4)c3)cc2C(F)CC(C)(C)C)c1` (stereo not drawn) [Example 94, 3-cyclopropyl-3-(3-(((2′-fluoro-2-(1-fluoro-3,3-dimethylbutyl)-5′-methoxybiphenyl-4-yl)oxy)methyl)phenyl)propanoic acid] returned an activation at 1 µM of 110%.
Next, `COc1ccc(F)c(-c2ccc(OCc3cccc(C(CC(=O)O)C4CC4)c3)cc2C(O)C(C)(C)C)c1` (stereo not drawn) [Example 95]: 107%; `COc1ccc(F)c(-c2ccc(OCc3cccc(C(CC(=O)O)C4CC4)c3)cc2C2CC(C)(C)OC(C)(C)C2)c1` (stereo not drawn) [Example 96, 3-cyclopropyl-3-(3-(((2′-fluoro-5′-methoxy-2-(2,2,6,6-tetramethyltetrahydro-2H-pyran-4-yl)biphenyl-4-yl)oxy)methyl)phenyl)propanoic acid]: 140%.
Next, `COc1ccc(F)c(-c2ccc(OCc3cccc(C(CC(=O)O)C4CC4)c3)cc2CC2(C)CCCC2)c1` (stereo not drawn) [Example 97, 3-cyclopropyl-3-(3-(((2′-fluoro-5′-methoxy-2-((1-methylcyclopentyl)methyl)biphenyl-4-yl)oxy)methyl)phenyl)propanoic acid]: 118%; `COc1ccc(F)c(-c2ccc(OCc3cccc(C(CC(=O)O)C4CC4)c3)cc2C(C)C(C)(C)C)c1` (stereo not drawn) [Example 98, 3-cyclopropyl-3-(3-(((2-(3,3-dimethylbutan-2-yl)-2′-fluoro-5′-methoxybiphenyl-4-yl)oxy)methyl)phenyl)propanoic acid]: 96%; `COc1ccc(F)c(-c2ccc(OCc3cccc(C(CC(=O)O)C4CC4)c3)cc2CC2(C#N)CCCCC2)c1` (stereo not drawn) [Example 99, 3-(3-(((2-((1-cyanocyclohexyl)methyl)-2′-fluoro-5′-methoxybiphenyl-4-yl)oxy)methyl)phenyl)-3-cyclopropylpropanoic acid]: 93%.
Next, `CCC1(Cc2cc(OCc3cccc(C(CC(=O)O)C4CC4)c3)ccc2-c2cc(OC)ccc2F)CCCC1` (stereo not drawn) [Example 100, 3-cyclopropyl-3-(3-(((2-((1-ethylcyclopentyl)methyl)-2′-fluoro-5′-methoxybiphenyl-4-yl)oxy)methyl)phenyl)propanoic acid]: 105%.
`COc1ccc(F)c(-c2ccc(OCc3cccc(C(CC(=O)O)C4CC4)c3)cc2C(F)C2(C#N)CCCC2)c1` (stereo not drawn) [Example 101, 3-(3-(((2-((1-cyanocyclopentyl)(fluoro)methyl)-2′-fluoro-5′-methoxybiphenyl-4-yl)oxy)methyl)phenyl)-3-cyclopropylpropanoic acid] returned an activation at 1 µM of 106%.
Next, `COc1ccc(F)c(-c2ccc(OCc3cccc(C(CC(=O)O)C4CC4)c3)cc2CC2(C#N)CCC2)c1` (stereo not drawn) [Example 102, 3-(3-(((2-((1-cyanocyclobutyl)methyl)-2′-fluoro-5′-methoxybiphenyl-4-yl)oxy)methyl)phenyl)-3-cyclopropylpropanoic acid]: 100%; `COc1ccc(F)c(-c2ccc(OCc3cccc(C(CC(=O)O)C4CC4)c3)cc2CC2(C#N)CC2)c1` (stereo not drawn) [Example 103, 3-(3-(((2-((1-cyanocyclopropyl)methyl)-2′-fluoro-5′-methoxybiphenyl-4-yl)oxy)methyl)phenyl)-3-cyclopropylpropanoic acid]: 119%.
Next, `COc1cc(-c2ccc(OCc3cccc(C(CC(=O)O)C4CC4)c3)cc2CC(C)(C)C)c(F)cn1` (stereo not drawn) [Example 104, 3-cyclopropyl-3-(3-((3-(2,2-dimethylpropyl)-4-(5-fluoro-2-methoxypyridin-4-yl)phenoxy)methyl)phenyl)propanoic acid]: 105%; `CCCC(C)(C)Cc1cc(OCc2cccc(C(CC(=O)O)C3CC3)c2)ccc1-c1cc(OC)ccc1F` (stereo not drawn) [Example 105, 3-cyclopropyl-3-(3-(((2-(2,2-dimethylpentyl)-2′-fluoro-5′-methoxybiphenyl-4-yl)oxy)methyl)phenyl)propanoic acid]: 116%.
